Experimental data reported in US20040063787A1, “Vaginal health products” (priority 2002, published 2004).
“Also recorded” adds a separate entry of the source.

How the values were obtained:
Type in all cases: cell-based, human
[1] = tested on: ME-180 cells; experiment: Toxicity & proliferation experiments, ME-180 cell counting; conditions: for effect on ME-180 cell growth: 1 nM, 10 nM, and 100 nM; for ME-180 cell number / cell growth versus no retinoic acid (negative control): 1 μM or 10 μM (micromolar concentrations)
Protocol: Cell Lines. Human cervical epithelial cells (ME-180, ATCC) were propagated in culture at 37° C. in a 5% CO2 atmosphere in McCoy's 5A media (Invitrogen) with 10% heat-inactivated fetal bovine serum (Invitrogen). All trans-, 9-cis-, and 13-cis-retinoic acids were purchased from ICN Biomedicals. Retinoic acid stock solutions were made up in DMSO.
Toxicity & Proliferation Experiments. Cellular toxicity/proliferation experiments were performed by first washing the ME-180 cells with HBSS, and adding 3 mL of trypsin (0.25%) with EDTA to the T75 flask for 15 minutes. ME-180 cells in trypsin were added to 7 mL of McCoy's 5A media with 10% FBS. ME-180 cells were centrifuged for 5 minutes, and the supernatant was removed. ME-180 cells were resuspended in 10 mL of McCoy's 5A media with 10% FBS for counting. ME-180 cells were centrifuged for 5 minutes, and the supernatant was removed. ME-180 cells were resuspended at 6×10^4 cells per mL (62 mL total volume). One milliliter was added to each of 60 wells in a total of three 24-well plates. ME-180 cells were allowed to adhere to the wells overnight. The media was then removed from the ME-180 cells, and the cells were washed one time with 1 mL of HBSS. One mL of McCoy's 5A media with 10% FBS was added in duplicate on each plate containing the retinoic acids in various concentrations (0-10 μM). ME-180 cells in each plate were counted on day 1, 2, or 3 after the addition of the retinoic acid-containing media.
Cell counting. Media was removed from the ME-180 cells, and the cells were washed one time with 1 mL of HBSS. Trypsin was added (150 μL) to each well for ˜15 minutes to remove cells. One mL of McCoy's 5A media with 10% FBS was added to each well. ME-180 cells were mixed thoroughly and counted using a hemocytometer.
Cell Proliferation of ME-180 Cells. ME-180 cells were incubated with vitamin A derivatives for a period of up to 3 days. ME-180 cells were counted on each day.

[2] = tested on: P2Y2 receptor gene; experiment: RT-PCR expression assay of P2Y2 in ME-180 cells; conditions: 100 nM
Protocol: (§1) RNA Extraction from ME-180 cells. ME-180 cells were plated at 2×10^5 cells per T25 flask (5 mL total volume) and were allowed to propagate for four days. On day four, the media was removed. Five mL of McCoy's 5A media with 10% FBS containing 0, 10 nM, 100 nM, or 1 μM trans-retinoic acid were added to ME-180 cells in duplicate. ME-180 cells were incubated with these solutions for 4, 8, 16, or 24 hours. The media was removed, and 700 μL of lysis buffer was added to the flasks. The cells were scraped off of the flask with a cell scraper. The RNA was isolated using the Ambion RNAqueous kit according to the manufacturer's instructions. Precipitated RNA was resuspended in DEPC-treated water with 1 μL of RNase inhibitor. Total cervical RNA used as a control was purchased from Ambion, Inc.
(§2) Reverse Transcripton of RNA. Approximately 7 μL of RNA was incubated with 3 μL of primer at 80° C. for 10 minutes then immediately placed on ice. A master mix containing 4 μL DEPC water, 4 μL 5× reaction buffer, 1 μL dNTPs, 1 μL of RNase inhibitor, and 1 μL of reverse transcriptase was made for the reactions. Ten μL of master mix was added to the RNA/primer solution and placed at 42° C. for 2 hours. The resulting cDNA was incubated with 3.5 μL of NaOH solution at 70° C. for 10 minutes to hydrolyze the remaining RNA. Five μL of 0.5M Tris/EDTA was added to neutralize the solution. […]

[3] = tested on: mucin-4 (MUC-4); experiment: RT-PCR expression assay of mucin-4 in ME-180 cells; conditions: 100 nM, absence of serum
Protocol: as §1, with “Five mL of McCoy's 5A media with 10% FBS containing 0, 10 nM, 100 nM, or 1 μM trans-retinoic acid were added to ME-180 cells in duplicate.” left out
as §2, with “solution. To precipitate the cDNA, 125 μL of 3M NH4OAc, 5 μL of linear polyacrylamide, and 700 μL of absolute ethanol were added.” for “solution.”

[4] = tested on: estrogen receptor alpha (ER-α) gene; experiment: RT-PCR expression assay of ER-α in ME-180 cells; conditions: 100 nM, no serum, 4, 8, and 16 hours, FIG. 4 lanes 4-6, listed as vitamin A
Protocol: as §1, with “Five mL of McCoy's 5A media with 10% FBS containing 0, 10 nM, 100 nM, or 1 μM trans-retinoic acid were added to ME-180 cells in duplicate.” left out
as §2, with “solution. To precipitate the cDNA, 125 μL of 3M NH4OAc, 5 μL of linear polyacrylamide, and 700 μL of absolute ethanol were added.” for “solution.”

[5] = tested on: vascular endothelial growth factor (VEGF); experiment: RT-PCR expression assay of VEGF in ME-180 cells; conditions: 100 nM, 4, 8, and 16 hours, FIG. 5
Protocol: as §1, §2

Structure (SMILES) | effect on ME-180 cell growth ([1]; up to 3 days, FIG. 1) | toxicity to ME-180 cells ([1]; micromolar concentrations) | ME-180 cell growth versus negative control ([1]; micromolar concentrations, two days, FIG. 2) | toxicity (overall conclusion of the experiments) [1] | growth compared with cells exposed to other agents or to no agents ([1]; 1 nM to 100 nM, up to 3 days, FIG. 1) | ME-180 cell number / cell growth versus no retinoic acid (negative control) ([1]; two days, FIG. 2) | ME-180 cell number / cell growth versus no retinoic acid (negative control) ([1]; two days, FIG. 2, listed as Vitamin A) | P2Y2 expression (PCR product) ([2]; in the absence of serum, FIG. 3 lanes 8-11) | P2Y2 expression (PCR product) ([2]; in the presence of serum, FIG. 3 lanes 4-6) | MUC-4 expression (PCR product) ([3]; 4 hours or 8 hours, FIG. 6 lanes 4 and 5) | MUC-4 expression (PCR product) ([3]; 16 hours, FIG. 6 lane 6) | ER-α gene expression (PCR product) [4] | VEGF expression (PCR product) [5]
CC1=C(/C=C/C(C)=C\C=C\C(C)=C\C(=O)O)C(C)(C)CCC1 [9-cis-retinoic acid] | little effect on cell growth | – | – | – | – | – | – | – | – | – | – | – | –
CC1=C(/C=C/C(C)=C/C=C/C(C)=C\C(=O)O)C(C)(C)CCC1 [13-cis-retinoic acid] | little effect on cell growth | toxic | did not grow as well as the negative control | – | – | – | – | – | – | – | – | – | –
CC1=C(/C=C/C(C)=C/C=C/C(C)=C/C(=O)O)C(C)(C)CCC1 [trans-retinoic acid] | little effect on cell growth | – | – | nontoxic | growing slightly faster | more cells were present | increases cervical cell growth | increase in P2Y2 expression | increase in P2Y2 expression | detectable | decreases but is still detectable | the ER-α gene was expressed; also recorded: increase in ER-α expression | increased the expression
